The NIST ThermoML archive (doi:10.1021/je050052+)
± gives the expanded uncertainty stated by the source.

Assay: excess molar enthalpy (molar enthalpy of mixing); xn = mol fraction of the nth substance listed
Details: Liquid, Flow calorimetry

COC(=O)OC [dimethyl carbonate] + CCO
Details	excess molar enthalpy [kcal/mol]
298.15 K, 1000 kPa, x1 = 0.05	0.1012 ± 0.00098
298.15 K, 1000 kPa, x1 = 0.1	0.1881 ± 0.00165
298.15 K, 1000 kPa, x1 = 0.15	0.2526 ± 0.00215
298.15 K, 1000 kPa, x1 = 0.2	0.3048 ± 0.00263
298.15 K, 1000 kPa, x1 = 0.25	0.3456 ± 0.00287
298.15 K, 1000 kPa, x1 = 0.3	0.3728 ± 0.00311
298.15 K, 1000 kPa, x1 = 0.35	0.3921 ± 0.00311
298.15 K, 1000 kPa, x1 = 0.4	0.4023 ± 0.00335
298.15 K, 1000 kPa, x1 = 0.45	0.4067 ± 0.00335
298.15 K, 1000 kPa, x1 = 0.5	0.4047 ± 0.00335
298.15 K, 1000 kPa, x1 = 0.55	0.3955 ± 0.00335
298.15 K, 1000 kPa, x1 = 0.6	0.3776 ± 0.00311
298.15 K, 1000 kPa, x1 = 0.65	0.3579 ± 0.00287
298.15 K, 1000 kPa, x1 = 0.7	0.3311 ± 0.00287
298.15 K, 1000 kPa, x1 = 0.75	0.2963 ± 0.00239
298.15 K, 1000 kPa, x1 = 0.8	0.2542 ± 0.00215
298.15 K, 1000 kPa, x1 = 0.85	0.2024 ± 0.00174
313.15 K, 100 kPa, x1 = 0.0521	0.0984 ± 0.000956
313.15 K, 100 kPa, x1 = 0.098	0.1854 ± 0.00163
313.15 K, 100 kPa, x1 = 0.1514	0.2672 ± 0.00225
313.15 K, 100 kPa, x1 = 0.1988	0.3216 ± 0.00263
313.15 K, 100 kPa, x1 = 0.2488	0.3685 ± 0.00311
313.15 K, 100 kPa, x1 = 0.3012	0.4033 ± 0.00335
313.15 K, 100 kPa, x1 = 0.3519	0.4273 ± 0.00359
313.15 K, 100 kPa, x1 = 0.4008	0.4431 ± 0.00359
313.15 K, 100 kPa, x1 = 0.4516	0.447 ± 0.00359
313.15 K, 100 kPa, x1 = 0.5007	0.4465 ± 0.00359
313.15 K, 100 kPa, x1 = 0.5515	0.4379 ± 0.00359
313.15 K, 100 kPa, x1 = 0.6003	0.4197 ± 0.00335
313.15 K, 100 kPa, x1 = 0.6506	0.3969 ± 0.00335
313.15 K, 100 kPa, x1 = 0.699	0.3683 ± 0.00311
313.15 K, 100 kPa, x1 = 0.7513	0.3253 ± 0.00263
313.15 K, 100 kPa, x1 = 0.7987	0.2835 ± 0.00239
313.15 K, 100 kPa, x1 = 0.8497	0.2287 ± 0.00196
313.15 K, 100 kPa, x1 = 0.9012	0.1572 ± 0.00141
313.15 K, 100 kPa, x1 = 0.9504	0.0808 ± 0.000813
313.15 K, 1000 kPa, x1 = 0.052	0.1039 ± 0.00098
313.15 K, 1000 kPa, x1 = 0.0979	0.1898 ± 0.00165
313.15 K, 1000 kPa, x1 = 0.1513	0.2697 ± 0.00227
313.15 K, 1000 kPa, x1 = 0.1986	0.3254 ± 0.00263
313.15 K, 1000 kPa, x1 = 0.2487	0.3721 ± 0.00311
313.15 K, 1000 kPa, x1 = 0.3011	0.4066 ± 0.00335
313.15 K, 1000 kPa, x1 = 0.3517	0.4296 ± 0.00359
313.15 K, 1000 kPa, x1 = 0.4006	0.4435 ± 0.00359
313.15 K, 1000 kPa, x1 = 0.4515	0.4496 ± 0.00359
313.15 K, 1000 kPa, x1 = 0.5006	0.4474 ± 0.00359
313.15 K, 1000 kPa, x1 = 0.5513	0.4373 ± 0.00359
313.15 K, 1000 kPa, x1 = 0.6002	0.4211 ± 0.00335
313.15 K, 1000 kPa, x1 = 0.6504	0.3971 ± 0.00335
313.15 K, 1000 kPa, x1 = 0.6988	0.3677 ± 0.00311
313.15 K, 1000 kPa, x1 = 0.7511	0.3259 ± 0.00263
313.15 K, 1000 kPa, x1 = 0.7986	0.2824 ± 0.00237
313.15 K, 1000 kPa, x1 = 0.8496	0.2284 ± 0.00196
313.15 K, 1000 kPa, x1 = 0.9011	0.1552 ± 0.00139
313.15 K, 1000 kPa, x1 = 0.9504	0.0781 ± 0.000789
313.15 K, 10000 kPa, x1 = 0.0517	0.09719 ± 0.000932
313.15 K, 10000 kPa, x1 = 0.1019	0.1904 ± 0.00165
313.15 K, 10000 kPa, x1 = 0.1505	0.2626 ± 0.00222
313.15 K, 10000 kPa, x1 = 0.2019	0.3232 ± 0.00263
313.15 K, 10000 kPa, x1 = 0.2517	0.3678 ± 0.00311
313.15 K, 10000 kPa, x1 = 0.2998	0.4004 ± 0.00335
313.15 K, 10000 kPa, x1 = 0.3503	0.4236 ± 0.00359
313.15 K, 10000 kPa, x1 = 0.3992	0.4379 ± 0.00359
313.15 K, 10000 kPa, x1 = 0.45	0.4441 ± 0.00359
313.15 K, 10000 kPa, x1 = 0.4991	0.4423 ± 0.00359
313.15 K, 10000 kPa, x1 = 0.5498	0.4331 ± 0.00359
313.15 K, 10000 kPa, x1 = 0.5987	0.4174 ± 0.00335
313.15 K, 10000 kPa, x1 = 0.6491	0.394 ± 0.00335
313.15 K, 10000 kPa, x1 = 0.7005	0.3625 ± 0.00311
313.15 K, 10000 kPa, x1 = 0.75	0.3257 ± 0.00263
313.15 K, 10000 kPa, x1 = 0.8004	0.279 ± 0.00234
313.15 K, 10000 kPa, x1 = 0.8489	0.2261 ± 0.00194
313.15 K, 10000 kPa, x1 = 0.9006	0.1567 ± 0.00141
313.15 K, 10000 kPa, x1 = 0.9501	0.0768 ± 0.000789
328.15 K, 1000 kPa, x1 = 0.05	0.1153 ± 0.00108
328.15 K, 1000 kPa, x1 = 0.1	0.2147 ± 0.00184
328.15 K, 1000 kPa, x1 = 0.15	0.2918 ± 0.00239
328.15 K, 1000 kPa, x1 = 0.2	0.3565 ± 0.00287
328.15 K, 1000 kPa, x1 = 0.25	0.4091 ± 0.00335
328.15 K, 1000 kPa, x1 = 0.3	0.4447 ± 0.00359
328.15 K, 1000 kPa, x1 = 0.35	0.4711 ± 0.00382
328.15 K, 1000 kPa, x1 = 0.4	0.4883 ± 0.00406
328.15 K, 1000 kPa, x1 = 0.45	0.4949 ± 0.00406
328.15 K, 1000 kPa, x1 = 0.5	0.4942 ± 0.00406
328.15 K, 1000 kPa, x1 = 0.55	0.4854 ± 0.00406
328.15 K, 1000 kPa, x1 = 0.6	0.47 ± 0.00382
328.15 K, 1000 kPa, x1 = 0.65	0.4467 ± 0.00359
328.15 K, 1000 kPa, x1 = 0.7	0.4113 ± 0.00335
328.15 K, 1000 kPa, x1 = 0.75	0.3653 ± 0.00311
328.15 K, 1000 kPa, x1 = 0.8	0.3136 ± 0.00263
328.15 K, 1000 kPa, x1 = 0.85	0.2508 ± 0.00213
328.15 K, 1000 kPa, x1 = 0.9	0.1742 ± 0.00153
328.15 K, 1000 kPa, x1 = 0.95	0.08759 ± 0.00086
